From ChEMBL document CHEMBL3507680, “University of Dundee, Gates Library screen for HepG2 cell viability”

Experiment: Human HepG2 cell viability assay in 384 well format
Format: toxicity, cell-based
Design: dose 125 nL, time 70.5 hour; cytotoxicity at 70.5 h: concentration not given beside the values
Conditions: HepG2 cells, read-out: Inhibition

Structure (SMILES)	cytotoxicity at 70.5 h
Cn1cc(C2(C)CN(C(=O)Nc3ccccc3F)CCO2)cn1 (stereo not given)	-5.13%
Cc1nc(CNC2(C(=O)OC(C)(C)C)CCCC2)oc1C	-8.39%
O=C(c1cnc(-c2ccccc2)s1)N1CCOC2(CCCC2)C1	-3.97%
N#Cc1ccc(F)c(CN2CCCC2Cn2cncn2)c1 (stereo not given)	-5.36%
CC(=O)N1CCN(CCCSCc2ccccc2)CC1	6.76%
CS(=O)(=O)N1CCCN(CCCSCc2ccccc2)CC1	-8.27%
CN(Cc1cc(F)cc2cccnc12)CC1CCN(CCO)CC1	-8.39%
CC(C)OCCCNC(=O)CN1CCN(c2nccs2)C(C)C1 (stereo not given)	35.5%
CCc1nc2n(n1)CC(NCC1=Cc3ccc(OC)cc3OC1)CC2 (stereo not given)	2.24%
Cc1nnc(CN(C)CC(=O)NCCc2ccc(F)cc2)n1C	-5.46%
CCN(CC)CCCNC(=O)Nc1c(C)cccc1C(C)C	-4.07%
CN(Cc1noc(C2CC2)n1)C1CCN(CCn2cccn2)C1 (stereo not given)	-5.95%
CCC1(CC)CC(=O)N(CC(O)c2cccc(Br)c2)C1=O (stereo not given)	28.9%
Cc1cc(CN(C)C(=O)Nc2ccccc2C)no1	-4.53%
OC(CNCc1nnc2ccccn12)c1ccc2c(c1)OCCCO2 (stereo not given)	-8.23%
CC(CN1CCOC1=O)NC(=O)c1cccc(Cl)c1Cl (stereo not given)	-4.07%
CCC1(CC)CC(=O)N(CC(O)c2ccc(F)cc2)C1=O (stereo not given)	-9.84%
Cc1ccc(C(CNC(=O)c2cc(=O)c3ccccc3[nH]2)N(C)C)cc1 (stereo not given)	-4.48%
CC(CN1CCOC1=O)NC(=O)c1cccc(C#N)c1 (stereo not given)	-3.83%
COCC(C)NC(=O)N1CCN(S(C)(=O)=O)CC1 (stereo not given)	-2.46%
CCC1(CC)CC(=O)N(CC(O)c2cccc(F)c2)C1=O (stereo not given)	-3.42%
O=S(=O)(c1ccccc1N1CC(n2cccn2)C1)C(F)(F)F	1.67%
CC(C)c1nnc2n1CCN(Cc1cc(Cl)c3c(c1)OCCO3)C2	-4.04%
CCCOc1ccc2c(c1)OCC(CNC1CCc3ncnn3C1)=C2 (stereo not given)	-6.97%

Structure (SMILES)	cytotoxicity at 70.5 h
O=C(Nc1cccc(N2CCOCC2)c1)N[C@H](CO)c1ccccc1	-1.11%
CC(CN1CCOCC1)NC(=O)N1CCCC1 (stereo not given)	-3.6%
Cc1ccc(CNC(=O)c2ccc(=O)n(C)n2)c(OC2CCCC2)c1	-5.94%
Cn1nnnc1SCC1(O)CCCCC1	-5.84%
CN(Cc1cc(Br)cs1)Cc1nnsc1Cl	-8.26%
CN1CCCN(c2ccc(F)cc2CNC(=O)c2cccnc2)CC1	29.2%
O=S(=O)(NCCCn1cncn1)c1ccc2c(c1)CCCC2	-5.74%
Cc1cc(C)n(CCN2CCC(N(C)Cc3noc(C4CC4)n3)C2)n1 (stereo not given)	-4.52%
CCNC(=O)c1ccc(NC(=O)N(C)Cc2cc(C)on2)c(C)c1	-5.12%
O=S(=O)(NCCCn1cncn1)c1ccc2c(c1)OCCCO2	-6.28%
C1=C(CNC2CCc3ncnn3C2)COc2ccccc21 (stereo not given)	-9.66%
CC(C)c1nnc2n1CCN(Cc1cc(Cl)c3c(c1)OCO3)C2	-1.27%
CCOCCN1CCN(CC(=O)NC2(C#N)CCCC2)CC1C (stereo not given)	10.7%
Cc1nc(C(C)(C)NCc2ncc(C3CC3)o2)sc1C	2.05%
CCN(CC)CCn1cc(NC(=O)CNc2ccccc2OC)cn1	7.01%
CNS(=O)(=O)c1cc(C(=O)NC2COc3ccccc3C2)ccc1OC (stereo not given)	6.83%
CC(C)(NCc1ccc(C#N)cc1)c1ccc2c(c1)OCO2	12.3%
CC(C)c1ccc(OCCC(=O)NCCC(=O)N(C)C)cc1	-8.34%
CC(C)c1ccc(OCCC(=O)N(C)CC(N)=O)cc1	-12.9%
Cc1nc(-c2cc(C(=O)O)co2)cs1	-9.39%
Cn1cnc2c1CCN(CC(=O)NC1CCCCNC1=O)C2 (stereo not given)	15.2%
Cc1occc1C(=O)N1CCCN(Cc2ncc(Cl)n2C)CC1	-7.84%
Cc1cnn(CC(C)NCc2cc(=O)n3cc(C)ccc3n2)c1 (stereo not given)	-6.57%
CC(NC(=O)NC1CCN(CC2CCCC2)CC1)c1nccs1 (stereo not given)	-6.39%

Structure (SMILES)	cytotoxicity at 70.5 h
COCCN(C(=O)c1ccsc1)c1ccc(C#N)cc1	-3.69%
Cc1nc(-c2cc(C(=O)NC(C)(C(=O)O)C(C)C)co2)cs1 (stereo not given)	-7.3%
CC(C)c1ccc(OCCC(=O)N(C)C)cc1	12.7%
O=C(NCCSC1CCCC1)c1cc(Cl)ccn1	22.7%
O=C(NCCSC1CCCC1)c1cnccn1	29.4%
CC1COCCN1C(=O)c1ccc(=O)n(CCOc2ccccc2)n1 (stereo not given)	-5.11%
COc1ccc(C2CCCN2c2ccc(C#N)cn2)c(OC)c1 (stereo not given)	4.11%
CCC1CCCCN1C(=O)CCn1cnc2sccc2c1=O (stereo not given)	-11.1%
CNC(=O)C1CCCCN1C(=O)CCn1cnc2sccc2c1=O (stereo not given)	-1.4%
COc1ccc(C2CCCN2c2cnccn2)c(OC)c1 (stereo not given)	-2.67%
Cc1nccn1-c1cc(CNS(=O)(=O)N2CCCC(C)C2)ccn1 (stereo not given)	18%
O=C(NCC(F)(F)F)c1nnn(-c2ccccc2)c1C(F)(F)F	-4.56%
COC(=O)c1ccc(N2CCN(C(=O)C(C)C)C(C)C2)cc1 (stereo not given)	26.6%
COc1ccc(N2CCC(NCc3csc(C(C)C)n3)CC2)cc1	4.75%
Cc1cc(NC(=O)NC(C)(C)c2nc(C)c(C)s2)no1	-8.02%
CCCOCCOC(=O)c1ccc2c(c1)[nH]c(=O)n2C	11.7%
NC(=O)CN1CCN(CC2CC2)c2ccccc21	13.1%
Cc1cc(NC(=O)CCNC(C)(C)c2nc(C)c(C)s2)no1	-5.95%
O=C(NCc1nncn1C1CC1)C1(c2cccc(F)c2)CCOCC1	-9.71%
O[C@@H]1Cc2ccccc2[C@@H]1Nc1ncccc1F	-9.59%
Cc1csc(CN(CC2CCCO2)C(=O)c2cccnc2C)n1 (stereo not given)	-6.56%
CCCn1nnnc1CSc1nccn1CC	-0.835%
Cc1cc(C(=O)NCC2CCCO2)c(C)n1-c1cccnc1 (stereo not given)	-10.8%
Cc1csc(CN(C)CCCOc2cccc(C#N)c2)n1	13.7%

Structure (SMILES)	cytotoxicity at 70.5 h
Cc1cc(CN2CCN(CC(=O)NC3(C#N)CCCCC3)CC2)on1	2.07%
CC(c1ncc(C(C)(C)C)o1)N1CCN(Cc2ccco2)CC1 (stereo not given)	-5.45%
Cc1nc(CN[C@H]2CCCN(C(=O)OC(C)(C)C)C2)cs1	-3.34%
CC1CCc2nc(NC(=O)CN(C)C(=O)c3ccco3)sc2C1 (stereo not given)	28.3%
Cc1cc(NCCNc2ccc(C#N)cn2)nc(C)n1	-6.84%
COCCOc1ccccc1NC(C)C(=O)NC(=O)NC(C)(C)C (stereo not given)	-15.9%
CCN(CC)c1nc2sc(C(=O)NCC(=O)OC)cc2s1	19.9%
O=S(=O)(Cc1ccccc1)NCC1CCCN(Cc2cccs2)C1 (stereo not given)	-0.373%
Cc1csc(CCNc2ccc(C#N)cc2F)n1	-10.7%
CS(=O)(=O)NCC1CCCCN1Cc1ccccc1C#N (stereo not given)	-10.5%
c1csc(-c2cc(CN3CCN(c4nccs4)CC3)no2)c1	-10.2%
COC(=O)N1CCCC(NC(=O)NCc2nc(C)cs2)C1 (stereo not given)	-8.72%
Cc1cc(N2CCN(C(=O)c3cn(C)c4ccccc34)CC2)nc(C)n1	20.3%
COC(=O)N1CCCC(NC(=O)NCc2ccc(C)nc2)C1 (stereo not given)	-4.96%
Cc1noc(C(C)N2CCN(c3ncnc4sccc34)CC2)n1 (stereo not given)	-7.54%
CC(NC(=O)c1cc(N2CCNC2=O)ccc1F)c1ccc(F)cc1 (stereo not given)	-4.65%
Cc1csc(C2CCCCN2C(=O)c2cnn3ccc(C)nc23)n1 (stereo not given)	-18.6%
Cc1ccn2ncc(C(=O)N3CCCC(c4noc(C)n4)C3)c2n1 (stereo not given)	14.9%
CN(C)c1ccccc1CN1CCCCC1CNS(C)(=O)=O (stereo not given)	-4.51%
COC(=O)N1CCCC(NC(=O)NCc2cccc(C)n2)C1 (stereo not given)	-6.49%
Cc1ccn2ncc(C(=O)N3CCCC(c4cc(C)[nH]n4)C3)c2n1 (stereo not given)	-7.17%
Cc1nn(C)c(C)c1C1CCCN1CCOc1ccccc1C#N (stereo not given)	1.39%
O=C1CCCN1CCc1nc(-c2ccsc2)no1	-14.2%
Cn1cc(C2CCCN2C(=O)COC2CCCCC2)cn1 (stereo not given)	-11.1%

Structure (SMILES)	cytotoxicity at 70.5 h
COc1ccc2c(c1)CCCN2C(=O)CNCC1CN(C)CCO1 (stereo not given)	12.1%
Cc1nn(C(C)(C)C)c(=O)n1CC(=O)NC(C)(C)C	10.6%
COCC(C)NC(=O)c1cncc(Br)c1 (stereo not given)	-0.743%
Clc1ccc(OCCNC2(c3ccc(Br)cc3)CCOCC2)cc1	9.53%
O=C(c1csc(-c2ccco2)n1)N(CC1CCOC1)C1CC1 (stereo not given)	4.66%
O=C(NCc1ccc(-n2cncn2)nc1)N(CC1CCOC1)C1CC1 (stereo not given)	-5.41%
Cc1ccc(C(=O)N(Cc2ccccc2F)C2CC2)c(=O)[nH]1	7.09%
COc1ccc(OC)c(CN(C(=O)c2ccc(C)[nH]c2=O)C2CC2)c1	3.46%
Cc1ccc(C(=O)N(Cc2ccc(F)cc2)C2CC2)c(=O)[nH]1	-3.98%
CC(C)(C)OC(=O)NCC(=O)NCc1ccc(Cl)s1	-0.913%
CC(NC(=O)COc1ccccc1I)C1CC1 (stereo not given)	-1.97%
COc1ccccc1C1(C(=O)N2CCN(CC(C)O)CC2)CC1 (stereo not given)	-0.267%
CC(C)OC(=O)N1CCC(Nc2ncc(Br)cn2)CC1	-2.18%
Cc1nc(CSCCC(=O)NCC(=O)NC(C)C)cs1	1.26%
CN(C)CC1CN(CC(=O)N2CCc3ccccc32)CCO1 (stereo not given)	11.8%
CN(C)C1CCCN(C(=O)NCCNC(=O)C2CCCCC2)C1 (stereo not given)	3.73%
COCc1ccccc1C(=O)NCC(O)c1ccccc1F (stereo not given)	-2.57%
Cc1cccnc1CNc1ccc(C(=O)N2CCc3ccccc32)cn1	0.0725%
CCCC(=O)N1CCC(Nc2ncc(Br)cn2)CC1	0.868%
CN(C)C1CCCN(C(=O)NCCC(=O)N2CCCCCC2)C1 (stereo not given)	0.671%
CCn1ccnc1CN1CCN(c2ncnc3ccsc23)CC1C (stereo not given)	0.44%
CC(C)(C)c1n[nH]cc1CNCC1CCN(CC(F)(F)F)C1 (stereo not given)	-6.93%
CC(C)(C)c1n[nH]cc1CNCC1CCN(C2CC2)C1 (stereo not given)	-6.24%
CC(NCc1ccc(OCC(N)=O)cc1)c1ccc(Cl)cc1 (stereo not given)	15.5%
